Experimental data taken from patent US20100113517A1, “METHOD FOR THE TREATMENT OF FABRY DISEASE USING PHARMACOLOGICAL CHAPERONES” (AMICUS THERAPEUTICS, INC., priority 2007, published 2010).
Counter-ions that a name gives are not always drawn.

Columns and labels:
[1] = including peripheral neuropathy and severe gastrointestinal effects; even at 150 mg/day; cited from earlier work
GL-3 = GL-3 analysis from mouse tissues (LC-MS/MS); format: in vivo; settings: male R301Q Tg/KO mice, 30 mg/kg daily per os, 4 weeks
Protocol: Drug Administration. […] For the GL-3 assay, two groups of 6-7 male […] After dosing, indicated tissues were harvested and treated as described below. GL-3 analysis from mouse tissues. Tissue samples were washed free of blood, weighed and homogenized with a solvent system in a FastPrep® system. Homogenate was then extracted using Solid Phase Extraction on a C18 cartridge. The eluent was evaporated and reconstituted prior to injection onto a LC/MS system. Nine GL3 isoforms were measured using positive ESI-MS/MS. LC separation was achieved on a Zorbax C18 column.

[2] = biological target: T1, human mutant α-Gal A (R301Q) (Homo sapiens, UniProt P06280, R301Q); test: α-Gal A (GLA) enzyme activity in tissue lysates of R301Q Tg/KO mice; format: in vivo; settings: 4 weeks
T1 construct: Tissue lysates were prepared by homogenizing about 50 mg tissue in assay buffer; from tissue; host or cells: heart, kidney, skin, liver and spleen of R301Q Tg/KO mice (human transgene, mouse α-Gal A knocked out)
T1 sequence (P06280 32-429 R301Q): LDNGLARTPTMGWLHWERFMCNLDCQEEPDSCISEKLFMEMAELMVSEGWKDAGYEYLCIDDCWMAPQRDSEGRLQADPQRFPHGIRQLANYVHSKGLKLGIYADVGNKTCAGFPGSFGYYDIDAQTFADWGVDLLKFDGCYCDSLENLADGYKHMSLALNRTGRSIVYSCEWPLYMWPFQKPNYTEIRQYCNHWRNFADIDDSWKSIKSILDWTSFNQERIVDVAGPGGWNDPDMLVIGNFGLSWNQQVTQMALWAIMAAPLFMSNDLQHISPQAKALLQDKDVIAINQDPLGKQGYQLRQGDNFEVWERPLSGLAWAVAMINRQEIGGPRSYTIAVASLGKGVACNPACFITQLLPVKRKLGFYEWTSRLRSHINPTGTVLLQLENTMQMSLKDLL
Excerpt: Transgenic mice that exclusively express human mutant α-Gal A (R301Q) in an α-Gal A knock-out background (TgM/KO mice) were established and evaluated. This Example serves as a biochemical model to study and evaluate pharmacological chaperone therapy for Fabry disease, which is specific for those missense mutations that cause misfolding of α-Gal A.
Mice. Fabry R301Q Tg/KO mice were a gift from Dr. Robert Desnick. Male C57BL/6 mice were purchased from Taconic Farms, Germantown, N.Y. and housed in wire cages at 4 mice per cage. All studies were conducted at 8 weeks of age and conducted under strict adherence to IACUC guidelines.
Drug Administration. […] After dosing, indicated tissues were harvested and treated as described below.
Enzyme activity assay. After dosing, indicated tissues were harvested and frozen. Tissue lysates were prepared by homogenizing about 50 mg tissue in assay buffer. 2.5 μL lysate was combined with 17.5 μL of the assay buffer and 50 μL of the respective substrate solution (same as detailed in sections above). Reaction mixtures were then incubated at 37° C. for 1 hr. Afterward, 70 μL stop solution (0.4 M glycine, pH 10.8) was added, and fluorescence was read on a Victor plate reader at 355 nm excitation and 460 nm emission. Enzyme activity in the lysates was background subtracted, and normalized for protein concentration using the MicroBCA Protein Assay Kit (Pierce). A 4-MU standard curve was run (same as detailed in sections above) for conversion of fluorescence data to absolute enzyme activity expressed as nmoles/mg protein/hr or further normalized to % of untreated activity.

[3] = male R301Q Tg/KO mice, 30 mg/kg daily oral gavage, vs. untreated

SMILES	adverse events [1]	GL-3 levels, kidney tissue (GL-3)	reduction of GL-3 levels, heart tissue (GL-3)	reduction of GL-3 levels, skin tissue (GL-3)	increase in mutant GLA activity, heart [2, 3]	increase in mutant GLA activity, kidney [2, 3]	increase in mutant GLA activity, liver [2, 3]	increase in mutant GLA activity, skin [2, 3]	increase in mutant GLA activity, spleen [2, 3]	increase in mutant GLA activity, all treated tissues ([2]; male and female R301Q Tg/KO mice, 30 mg/kg/day in drinking water)
CCCCN1C[C@H](O)[C@@H](O)[C@H](O)[C@H]1CO [NB-DNJ]	numerous adverse events	–	–	–	–	–	–	–	–	–
OCC1NCC(O)C(O)C1O (stereo not shown) [DGJ HCl, migalastat hydrochloride]	–	trend towards reduction, but did not reach statistical significance	1.6 -fold	2.2 -fold	11±0.1 -fold	5.5±0.3 -fold	3±0.02 -fold	6.2±0.7 -fold	5±0.1 -fold	comparable increases
